Test results: patent publication US9937235B2, “Lipidated peptides as anti-obesity agents” (USTAV ORGANICKE CHEMIE A BIOCHEMIE AKADEMIE VED CR, V.V.I, priority 2012, dated 2018)
Where a SMILES comes first, the peptide text is derived from it. [ ]: non-standard residue; d: D form. The star is where a group is joined. Palmitoyl = CCCCCCCCCCCCCCCC(=O)*; Myristoyl = CCCCCCCCCCCCCC(=O)*; Nle = CCCC[C@H](N)C(=O)O; Dap = NC[C@H](N)C(=O)O

Columns and labels:
[1] = system: MAPK/ERK1/2 signaling pathway in RC-4B/C cells; experiment: MAPK/ERK1/2 signaling in RC-4B/C cells (Western blot); type: cell-based, rat; settings: 10^−6 mol·l^−1, 5 minute incubation
fasted C57BL/6 mice [2] = experiment: Food intake in fasted mice after SC administration; type: in vivo, mouse; settings: for food intake in fasted mice (in words): SC (peripheral) administration; for food intake / % control: SC administration; for % control: food intake vs saline
How it was run: (§1)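 Male C57BL/6 mice, food-deprived 17 h, received saline, PrRP or lipidated analogs either SC at 1-10 mg/kg or ICV into the third ventricle at 4 nmol/mouse.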

fasted C57BL/6 mice [3] = experiment: Food intake in fasted mice after ICV administration; type: in vivo; settings: 4 nmol/mouse; for % control: food intake vs saline
How it was run: as §1

SMILES: CCCCCCCCCCCCCC(=O)NC[C@H](N)C(=O)N[C@@H](CCCNC(=N)N)C(=O)N[C@@H](C)C(=O)N[C@@H](Cc1c[nH]cn1)C(=O)N[C@@H](CCC(N)=O)C(=O)N[C@@H](Cc1c[nH]cn1)C(=O)N[C@@H](CO)C(=O)N[C@@H](CCCC)C(=O)N[C@@H](CCC(=O)O)C(=O)N[C@H](C(=O)N[C@@H](CCCNC(=N)N)C(=O)N[C@H](C(=O)N1CCC[C@H]1C(=O)N[C@@H](CC(=O)O)C(=O)N[C@H](C(=O)N[C@@H](CC(N)=O)C(=O)N1CCC[C@H]1C(=O)N[C@@H](C)C(=O)N[C@@H](Cc1c[nH]c2ccccc12)C(=O)N[C@@H](Cc1ccc(O)cc1)C(=O)N[C@H](C(=O)NCC(=O)N[C@@H](CCCNC(=N)N)C(=O)NCC(=O)N[C@H](C(=O)N[C@@H](CCCNC(=N)N)C(=O)N1CCC[C@H]1C(=O)N[C@H](C(=O)NCC(=O)N[C@@H](CCCNC(=N)N)C(=O)N[C@@H](Cc1ccccc1)C(N)=O)C(C)C)[C@@H](C)CC)[C@@H](C)O)[C@@H](C)CC)[C@@H](C)O)[C@@H](C)O [Analog 5] (H-[Dap](Myristoyl)RAHQHS[Nle]ETRTPDINPAWYTGRGIRPVGRF-NH2)
- ERK signaling [1]: agonist
- food intake in fasted mice (in words) (fasted C57BL/6 mice [2]): significantly decreased food intake
- dose dependence of the lowering of food intake (fasted C57BL/6 mice [2]; SC administration, 1, 2, 5 and 10 mg/kg, FIG. 5 and 6): dose dependent
- food intake (fasted C57BL/6 mice [2]; 45 minutes, 10 mg/kg): 0.05 g
- % control (fasted C57BL/6 mice [2]; 45 minutes, 10 mg/kg): 25%
- food intake (fasted C57BL/6 mice [2]; 300 minutes, 10 mg/kg): 0.18 g
- % control (fasted C57BL/6 mice [2]; 300 minutes, 10 mg/kg): 21%
- food intake (fasted C57BL/6 mice [3]; 45 minutes): 0.35 g
- % control (fasted C57BL/6 mice [3]; 45 minutes): 62%
- food intake (fasted C57BL/6 mice [3]; 300 minutes): 0.96 g
- % control (fasted C57BL/6 mice [3]; 300 minutes): 73%

SMILES: CCCCCCCCCCCCCCCC(=O)NC[C@H](N)C(=O)N[C@@H](CCCNC(=N)N)C(=O)N[C@@H](C)C(=O)N[C@@H](Cc1c[nH]cn1)C(=O)N[C@@H](CCC(N)=O)C(=O)N[C@@H](Cc1c[nH]cn1)C(=O)N[C@@H](CO)C(=O)N[C@@H](CCCC)C(=O)N[C@@H](CCC(=O)O)C(=O)N[C@H](C(=O)N[C@@H](CCCNC(=N)N)C(=O)N[C@H](C(=O)N1CCC[C@H]1C(=O)N[C@@H](CC(=O)O)C(=O)N[C@H](C(=O)N[C@@H](CC(N)=O)C(=O)N1CCC[C@H]1C(=O)N[C@@H](C)C(=O)N[C@@H](Cc1c[nH]c2ccccc12)C(=O)N[C@@H](Cc1ccc(O)cc1)C(=O)N[C@H](C(=O)NCC(=O)N[C@@H](CCCNC(=N)N)C(=O)NCC(=O)N[C@H](C(=O)N[C@@H](CCCNC(=N)N)C(=O)N1CCC[C@H]1C(=O)N[C@H](C(=O)NCC(=O)N[C@@H](CCCNC(=N)N)C(=O)N[C@@H](Cc1ccccc1)C(N)=O)C(C)C)[C@@H](C)CC)[C@@H](C)O)[C@@H](C)CC)[C@@H](C)O)[C@@H](C)O [Analog 6] (H-[Dap](Palmitoyl)RAHQHS[Nle]ETRTPDINPAWYTGRGIRPVGRF-NH2)
- ERK signaling [1]: agonist
- food intake in fasted mice (in words) (fasted C57BL/6 mice [2]): significantly decreased food intake
- food intake (fasted C57BL/6 mice [2]; 45 minutes, 5 mg/kg): 0 g
- % control (fasted C57BL/6 mice [2]; 45 minutes, 5 mg/kg): 0%
- food intake (fasted C57BL/6 mice [2]; 300 minutes, 5 mg/kg): 0.14 g
- % control (fasted C57BL/6 mice [2]; 300 minutes, 5 mg/kg): 14%
- food intake (fasted C57BL/6 mice [3]; 45 minutes): 0.38 g
- % control (fasted C57BL/6 mice [3]; 45 minutes): 71%
- food intake (fasted C57BL/6 mice [3]; 300 minutes): 1.3 g
- % control (fasted C57BL/6 mice [3]; 300 minutes): 100%
